Data: paper PMC9635468, “Biological evaluation, docking studies, and in silico ADME prediction of some pyrimidine and pyridine derivatives as potential EGFR^WT and EGFR^T790M inhibitors” (Journal of Enzyme Inhibition and Medicinal Chemistry, 2022)
Converted amounts (≈) assume the structure as drawn.

Assays:
[1] = system: FADU; assay: Cytotoxicity screening, SRB assay, FADU; format: cell-based, human; details: 48 h; for IC50: Homo sapiens, FaDu
Description: (§1) In this study, a panel of cell lines was examined for their chemosensitivity. Different concentrations of the synthesised pyridines and pyrimidine derivatives were used in this study (5, 12.5, 25, and 50 µg/mL) for all the examined cell lines. In this study, breast tumour cell line (MCF7), hepatocellular carcinoma cell line (HEPG2), larynx cell line (HEP2), lung cancer cell line (H460), colon cancer cell line (HCT116 and Caco2), hypopharyngeal cell line (FADU), and normal Vero cell line were applied. The full methodology is described in the Supplementary data (SI 1).
(§2) SI 1: Cytotoxicity screening against human cancer cell lines
(§3) In this study, a panel of cell lines was examined for their chemosensitivity. Different concentrations of the synthesized pyridines and pyrimidines derivatives were used in this study (5, 12.5, 25, and 50 µg/ml) for all the examined cell lines. The most sensitive cell line to the treatment regimen was selected and subjected to further investigations to explore the mechanism of this interaction. Human breast tumor cell line (MCF7), human hepatocellular carcinoma cell line (HEPG2), human larynx cell line (HEP2), human lung cancer cell line (H460), human colon cancer cell line (HCT116 and Caco2), human hypopharyngeal cell line (FaDu), and normal cell line Vero were used in this study. It was obtained from the American Type Culture Collection (ATCC, Minnesota, USA). The tumor cell line was maintained at National Cancer Institute (NCI), Cairo, Egypt.
(§4) The antitumor activities of pyridines and pyrimidines derivatives and all tested cell lines were evaluated by sulphorhodamine-B (SRB) assay 1. Briefly, cells were seeded at a density of 3 × 10^3 cells/well in 96-well microtiter plates. They were left to attach for 24 h before incubation with drugs. Next, cells were treated with different concentrations of 5, 12.5, 25, and 50 µg/ml for MCF7, HEPG2, HEP2, HCT116, Caco2, H460, FaDu, and Vero cells. For each concentration, three wells were used and incubation was continued for 48 h. DMSO was used as a control vehicle (1 % v/v). At the end of incubation, cells were fixed with 20 % trichloroacetic acid and stained with 0.4 % SRB dye. The optical density (O.D.) of each well was measured spectrophotometrically at 570 nm using an ELISA microplate reader (TECAN sunrise™, Germany). The mean survival fraction at each drug concentration was calculated as follows: […]
(§5) O.D. of the treated cells/O.D. of the control cells. The IC50 (concentration that produces 50% of cell growth inhibition) value of each drug was calculated using sigmoidal dose-response curve-fitting models (Graph Pad Prizm software, version 5) 1.

[2] = system: HEP2; assay: Cytotoxicity screening, SRB assay, HEP2; format: cell-based, human; details: for HEP2 IC50: 48 h; for IC50: Homo sapiens, HEp-2, 48 h
Description: as §1, §2, §3, §4, §5

[3] = system: VERO; assay: Cytotoxicity screening, SRB assay, normal Vero cells; format: cell-based; details: 48 h, normal cell line; for IC50: Chlorocebus sabaeus, Vero
Description: as §1, §2, §3, §4, §5

[4] = biological target: EGFR (Wild) (Homo sapiens, UniProt P00533); assay: EGFR kinase (wild) inhibition assay, Kinase-Glo MAX
Chain of EGFR (Wild) (P00533 25-1210): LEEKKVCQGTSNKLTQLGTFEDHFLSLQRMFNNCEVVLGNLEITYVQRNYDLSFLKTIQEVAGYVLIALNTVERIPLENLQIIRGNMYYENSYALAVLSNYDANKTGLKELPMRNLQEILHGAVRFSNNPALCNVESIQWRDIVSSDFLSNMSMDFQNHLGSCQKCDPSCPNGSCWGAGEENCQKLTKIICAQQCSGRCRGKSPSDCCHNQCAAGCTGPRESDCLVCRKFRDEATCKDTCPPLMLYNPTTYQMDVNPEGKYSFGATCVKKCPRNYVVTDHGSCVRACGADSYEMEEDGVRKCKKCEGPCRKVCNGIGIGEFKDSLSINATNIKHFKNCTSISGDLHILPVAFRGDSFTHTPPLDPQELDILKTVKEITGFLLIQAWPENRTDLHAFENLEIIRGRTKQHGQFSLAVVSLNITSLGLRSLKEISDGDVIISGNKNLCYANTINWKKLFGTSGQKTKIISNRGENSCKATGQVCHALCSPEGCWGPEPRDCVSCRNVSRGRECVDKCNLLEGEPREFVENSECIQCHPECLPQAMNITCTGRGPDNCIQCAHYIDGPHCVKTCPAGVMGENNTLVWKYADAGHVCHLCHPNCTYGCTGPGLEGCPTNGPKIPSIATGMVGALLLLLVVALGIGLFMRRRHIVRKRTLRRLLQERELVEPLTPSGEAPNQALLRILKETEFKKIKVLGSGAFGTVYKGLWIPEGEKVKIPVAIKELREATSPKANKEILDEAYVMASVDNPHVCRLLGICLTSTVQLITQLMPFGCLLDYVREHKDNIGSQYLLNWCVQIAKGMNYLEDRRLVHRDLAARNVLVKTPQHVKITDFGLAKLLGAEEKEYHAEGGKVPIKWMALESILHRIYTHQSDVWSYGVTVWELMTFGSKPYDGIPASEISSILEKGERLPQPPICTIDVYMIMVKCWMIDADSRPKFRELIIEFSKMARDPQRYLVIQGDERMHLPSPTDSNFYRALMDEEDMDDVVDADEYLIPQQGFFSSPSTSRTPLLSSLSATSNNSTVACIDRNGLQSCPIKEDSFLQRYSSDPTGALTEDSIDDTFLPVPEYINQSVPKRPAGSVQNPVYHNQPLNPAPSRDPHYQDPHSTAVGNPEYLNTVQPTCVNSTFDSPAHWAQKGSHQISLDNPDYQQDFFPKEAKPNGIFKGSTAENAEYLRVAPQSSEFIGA
Description: The reagent, Kinase-Glo MAX, was used[50], and luminescence was detected by applying the microplate reader.
The assay protocol was carried out by adding 25 μL of the master mixture: (6 μL Kinase assay buffer + 1 μL ATP (500 μM) + 1 μL PTK substrate + 17 μL water) to each well. Thereafter, 5 μL of the inhibitor solution was added to each well labeled as “test inhibitor”. Meanwhile, for the “positive control" and “blank”, 5 μL of the same solution without inhibitor (inhibitor buffer) was added. To the wells designated as "blank", add 20 μL of Kinase assay buffer. The amount of EGFR required for the assay was calculated and the enzyme was diluted to 1 ng/μL with Kinase assay buffer. The reaction was initiated by adding 20 μL of diluted EGFR enzyme to the wells designated as “positive control” and "test inhibitor control". The wells were incubated at 30°C for 40 minutes, then 50 μL of Kinase-Glo Max reagent was added to each well. The plate was incubated at room temperature for 15 minutes and luminescence was measured using the microplate reader.

[5] = system: HEPG2 cell line; assay: Annexin V-FITC apoptosis detection by flow cytometry; format: cell-based, human; details: HEPG2, 3.8 µg/mL, 48 h; control 16.73
Description: Furthermore, both compounds 8 and 14 were evaluated for apoptosis using flow cytometry on the HEPG2 cell line. The % rate of total apoptosis for control, compound 8, and compound 14 were 16.73, 22.44, and 48.36 (%), respectively.
Liver cancer cells (HEPG2) were seeded in RPMI-1640 media at a density of 250 X 10^3 cells/mL. Both cell cycle and apoptosis evaluations were performed at 3.8 µg/mL for both compounds 8 and 14. The detailed method is described in the Supplementary data (SI 3).
Annexin V-FITC apoptosis detection kit (Beckman Coulter, California, USA) was used as the manufacturer’s recommendation by using (Beckman Coulter EPICS XL flow cytometer, California, USA). […]
Cell cycle evaluation was performed at 3.8 µg/mL of both compounds […]. After 48 h, the cells were harvested, stained and DNA content was quantified.
The most promising cytotoxic compounds (8 and 14) were further assessed for their inhibitory potential against both EGFR Wild and EGFRT T790M. […] The amount of EGFR required for the assay was calculated and the enzyme was diluted to 1 ng/μL with Kinase assay buffer. […] The plate was incubated at room temperature for 15 minutes and luminescence was measured using the microplate reader.

[6] = system: HCT116; assay: Cytotoxicity screening, SRB assay, HCT116; format: cell-based, human; details: for HCT116 IC50: 48 h; for IC50: Homo sapiens, HCT-116, 48 h
Description: as §1, §2, §3, §4, §5

[7] = system: T47D; assay: Cytotoxicity screening, SRB assay, T47D; format: cell-based, human; details: Homo sapiens, T47D, 48 h
[8] = system: HEPG2 cells; assay: Cell cycle DNA index analysis by flow cytometry; format: cell-based, human; details: HEPG2, 3.8 µg/mL, 48 h; for cells in G2/M phase: control 5.57%; for cells in G0/G1: control 92.7%

Row | Compound | FADU IC50 [1] [µg/mL] | IC50 [1] [µg/mL] | HEP2 IC50 [2] [µg/mL] | IC50 [2] [µg/mL] | IC50 [3] [µg/mL] | VERO IC50 [3] [µg/mL] | IC50 [4] [nM] | % rate of total apoptosis [5] [%] | HCT116 IC50 [6] [µg/mL] | IC50 [6] [µg/mL] | IC50 [7] [µg/mL] | cells in G2/M phase [8] [%] | cells in G0/G1 [8] [%]
1 | Oc1n[nH]c2nc(-c3ccco3)cc(-c3cccs3)c12 [Compound 8] | 5.60 | 3.8 (≈ 13.4 µM) | 7.90 | 4.4 (≈ 15.5 µM) | 4.3 (≈ 15.2 µM) | 3.90 | 131 ± 8 | 22.44 | 7.20 | 4 (≈ 14.1 µM) | 7.5 (≈ 26.5 µM) | 34.4 | 61.4
2 | N#Cc1c(-c2cccs2)cc(-c2ccco2)[nH]c1=O [Compound 14] | 3.90 | 5.7 (≈ 21.2 µM) | 4.70 | 8 (≈ 29.8 µM) | 4 (≈ 14.9 µM) | 4.60 | 203 ± 12 | 48.36 | 3.90 | 7.4 (≈ 27.6 µM) | 4.7 (≈ 17.5 µM) | 25.9 | 69.8
